Results published in ChEMBL document CHEMBL4390711, “New phenylpropanoid allopyranosides from the rhizomes of Cimicifuga dahurica” (Bioorg Med Chem Lett, 2019).

Tested on: RAW264.7
Assay: Antiinflammatory activity against mouse RAW264.7 cells assessed as inhibition of LPS-induced PGE2 production preincubated for 1 hr followed by LPS-stimulation and measured after 18 hrs
Format: functional, cell-based

| IC50 | SMILES |
| --- | --- |
| 19.7 µM | COc1cc(/C=C/C(=O)O[C@H](C(=O)O)[C@](O)(Cc2ccc(O)cc2)C(=O)O)ccc1O [CIMICIFUGIC ACID E] |
| 5.5 µM | C[C@]12CCC(=O)C=C1CC[C@@H]1[C@@H]2[C@@H](O)C[C@@]2(C)[C@H]1CC[C@]2(O)C(=O)CO [HYDROCORTISONE] |
| 6.33 µM | COc1cc(/C=C/C(=O)NCCc2ccc(O)cc2)ccc1O [N-TRANS-FERULOYL TYRAMINE] |
| 39.9 µM | COc1cc(/C=C/C(=O)NCCc2ccc(O)c(O)c2)ccc1O [N-TRANS-FERULOYLDOPAMINE] |
